# Assays:
# [1] = Plasma alectinib pharmacokinetics; type: in vivo, human
# [2] = test system: relapsed or refractory ALCL; conditions: 6 of 17 patients; cited from earlier work
# [3] = test system: relapsed or refractory ALCL; conditions: 36 pediatric patients treated weekly; cited from earlier work
# [4] = test system: relapsed or refractory systemic ALCL; conditions: cited from earlier work
# [5] = patients who achieved CR with BV
molecule,measurement,setting,value
CCc1cc2c(cc1N1CCC(N3CCOCC3)CC1)C(C)(C)c1[nH]c3cc(C#N)ccc3c1C2=O [alectinib],Time to steady-state peak concentration (median),"[1]; cohort A: younger than 15 years, 300 mg/d",4 h
same,Time to steady-state peak concentration (median),"[1]; cohort B: younger than 15 years, 600 mg/d",5 h
same,Time to steady-state peak concentration (median),"[1]; cohort C: 15 years or older, 600 mg/d",4 h
same,Peak concentration of alectinib,[1]; the patient who died following disease progression after the first course (cohort C),16.97 mg/mL
C#CCC(Cc1cnc2nc(N)nc(N)c2n1)c1ccc(C(=O)N[C@@H](CCC(=O)O)C(=O)O)cc1 (stereo partly shown) [pralatrexate],Objective response rate,[2],35%
CC[C@]1(O)C[C@@H]2CN(CCc3c([nH]c4ccccc34)[C@@](C(=O)OC)(c3cc4c(cc3OC)N(C)[C@H]3[C@@](O)(C(=O)OC)[C@H](OC(C)=O)[C@]5(CC)C=CCN6CC[C@]43[C@@H]65)C2)C1 [vinblastine],5-year EFS rate,[3],30%
same,CR rate,[3],83%
"BV: anti-CD30 Ab drug conjugated to the microtubule-disrupting agent, monomethyl auristatin E",CR rate,[4]; 33 of 58 patients,57%
same,Objective response rate,[4]; 50 of 58 patients,86%
same,Patients without recurrence with no treatment after a BV treatment regime,[4],approximately 15%
same,"Peripheral neuropathies, patients",[4],41%
same,5-year OS,[4]; [5],79%
same,5-year PFS,[4]; [5],57%

# From PMC7734006 (Cancer Science, 2020)
